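Five concentrations, 48 hours, 96-well plates. Abbreviation: GI50, concentration required for 50% inhibition of growth. TGI denotes the concentration required for complete inhibition of growth.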

Assay in all cases: NCI anticancer screen, dose series, 48 h
Assay [1] deals with DU-145 prostate.
Assay [2] concerns UO-31 renal.
Assay [3] deals with UACC-62 melanoma.
Assay [4] concerns NCI-H522 lung.
Assay [5] relates to SW-620 colon.
The subject of assay [6] is T-47D breast.
Assay [7] has as its system SF-268 CNS.
For assay [8], the system named is A549 NSCLC.
The test system of assay [9] is SNB-75 CNS.
Assay [10] has as its system HCT-116 colon.

With `CC(=O)O[C@H]1C(=O)[C@@]2(C)C([C@H](OC(=O)c3ccccc3)[C@]3(O)C[C@H](OC(=O)[C@H](O)[C@@H](NC(=O)c4ccccc4)c4ccccc4)C(C)=C1C3(C)C)[C@]1(OC(C)=O)CO[C@@H]1C[C@@H]2O` (some centres not stated), the GI50 in assay [1] is 0.00673 µM; in assay [2], 1.41 µM; in [3], 0.0207 µM; in assay [5], below 0.005 µM; in assay [6] it was 0.00973 µM; in [7] it was 0.021 µM. Also, the GI50 in assay [8], in assay [9] and in [10] was below 0.005 µM each time. The TGI in assay [1] was 0.0272 µM; in [2], above 50 µM; in [3] it was above 50 µM; in assay [4], 0.0146 µM; in assay [5] it was above 50 µM; in assay [6], above 50 µM. The TGI in assay [7] is above 50 µM; in assay [8], above 50 µM; in assay [9] it was 0.0186 µM; in assay [10], above 50 µM.
With `COc1ccc2c(c1)c(-c1nc(-c3c[nH]c4ncccc34)cs1)cn2CCCN1CCOCC1`, the GI50 in assay [1] was 3.15 µM; in assay [2], 1.37 µM; in [3], 1.97 µM; in assay [4] it was 2.07 µM; in [5], 2.26 µM; in [6] it was 2.07 µM. Moreover, the GI50 in [7] was 2.69 µM; in [8] it was 4.04 µM; in [9] it was 1.27 µM; in assay [10], 1.85 µM. In addition, the TGI is 11 µM in [1]; 3.67 µM in assay [2]; 4.32 µM in assay [3]; 6.03 µM in assay [4]; 5.24 µM in [5]; 7.83 µM in assay [6]. For the same compound, the TGI was 10.3 µM in [7], 13.1 µM in assay [8], 3.4 µM in [9] and 4.04 µM in [10].
Consider `CC(=O)ON1CCCC(P(=O)(OCOC(=O)C(C)(C)C)OCOC(=O)C(C)(C)C)C1=O` (configuration not stated), for which the GI50 in assay [1] is 1.47 µM; in assay [2], 0.337 µM; in assay [3] it was 0.405 µM; in [4], 0.506 µM; in assay [5] it was 1.26 µM; in [6] it was 0.435 µM. For the same compound, the GI50 in assay [7] was 0.746 µM; in [8], 0.514 µM; in [9], 3.31 µM; in assay [10], 0.249 µM. Also, the TGI in assay [1] was determined as 17.4 µM; in assay [2], 2.68 µM; in [3], 1.74 µM; in assay [4], 5.63 µM; in assay [5], 20.8 µM; in assay [6], 7.5 µM. Moreover, the TGI turned out to be 6.25 µM in assay [7], 18.7 µM in [8], 18.6 µM in assay [9] and 4.88 µM in assay [10].
On to `COc1ccc(OC)c(NCC(=O)n2nc(/C=C\c3ccc(O)c(OC)c3)cc2/C=C\c2ccc(O)c(OC)c2)c1`, for which the GI50 in assay [1] was 3.23 µM; in assay [2], 1.8 µM; in assay [3], 1.56 µM; in assay [4] it was 1.31 µM; in [5], 2.03 µM; in [6], 3.05 µM. Besides, the GI50 was 2.37 µM in assay [7], 3.4 µM in assay [8] and 2.2 µM in [9]. In addition, the TGI in [1] is 12.7 µM; in assay [2], 13.6 µM; in [3], 4.72 µM; in assay [4], 3.28 µM; in [5], 5.48 µM; in assay [6], 14.6 µM. For the same compound, the values for the TGI in assay [7], in [8] and in [9] were above 100 µM, 33.1 µM and 9.75 µM, respectively.
Consider `O=C(Nc1ccc(N=C=S)cc1Cl)c1cc(Br)cc(Br)c1O`, for which the TGI is 39.4 µM in assay [1]; above 100 µM in assay [2]; 35.2 µM in assay [3]; above 100 µM in [4]; 72.3 µM in assay [5]; above 100 µM in assay [6]. In addition, the TGI in assay [7] is above 100 µM; in assay [8] it was 69.7 µM; in assay [9] it was above 100 µM; in [10], 31.7 µM.
For the compound `CSC1=Nc2c(c(C)c(C)n2COC(CO)CO)C2=NC(=O)CN12`, the GI50 in assay [1], in [2], in assay [3], in [4], in [5] and in assay [6] was above 100 µM throughout. For the same compound, the GI50 in assay [7] is above 100 µM; in assay [8] it was above 100 µM; in [9], 63 µM; in assay [10], above 100 µM. Also, the TGI in [1], in assay [2], in assay [3], in [4], in [5] and in [6] was above 100 µM throughout. In addition, the TGI in assay [7], in assay [8], in [9] and in [10] was above 100 µM throughout.
In the case of `O=C(OCc1ccc2c(Br)cc(Br)c(O)c2n1)c1cc2ccccc2[nH]1`, the GI50 in assay [1] was 0.91 µM; in assay [2], 0.406 µM; in [3] it was 1.16 µM; in assay [4], 0.552 µM; in [5], 0.333 µM; in [6], 1.91 µM. In addition, the GI50 is 1.44 µM in assay [7], 1.42 µM in assay [8], 0.328 µM in [9] and 0.16 µM in assay [10]. Moreover, the TGI is 2.18 µM in [1]; 1.19 µM in assay [2]; 2.47 µM in assay [3]; 2.19 µM in assay [4]; 1.13 µM in assay [5]; 5.29 µM in assay [6]. Moreover, the TGI in assay [7] turned out to be 2.91 µM; in assay [8], 3.62 µM; in assay [9] it was 1.8 µM; in [10] it was 0.368 µM.
Take `O=C1Oc2ccccc2C(=O)/C1=C1/C=C(c2ccccc2)SS1`: the TGI in [1], in [2], in assay [3], in [4], in assay [5] and in assay [6] was above 100 µM each time. The TGI in assay [7], in assay [8], in assay [9] and in assay [10] was above 100 µM in each case.
